Source: patent publication US20230405015A1, “SUBSTITUTED 3,6-DIHYDRO-2H-1,3,4-OXADIAZIN-2-ONES FOR THE TREATMENT OF SARCOMA” (Bayer Aktiengesellschaft, priority 2021, published 2023)
“And” between values parts separate entries of the source, which are not always exact repeats. Equal values may be shown once. “Also recorded” adds a separate entry of the source.

What was measured:
[1] = system: human sarcoma cell line G-292 clone A141B1; assay: Cell proliferation measurement in vitro (Cell Titer Glo, 72 h); type: cell-based; conditions: G292, G-292 clone A141B1, 72 h, read-out: Anti-proliferation Target IC50
Experimental: The antiproliferative activity of the compounds of the general formula (I) was examined in vitro in the human sarcoma cell line G-292 clone A141B1 (from ATCC). For this purpose, the appropriate number of cells (1000) were plated in 384-well plates with appropriate growth medium McCoy's 5a Medium Modified, FCS 10% final (Biochrom; #S 0415); and incubated at 37° C. overnight. After 24 h, cells on one plate (0 h plate) were treated with 30 μl/cavity of CTG solution (Promega Cell Titer Glo (catalogue #G755B and G756B)) and incubated at room temperature for 10 min, and luminescence was measured by means of a VICTOR V (Perkin Elmer), in order to determine cell viability on commencement of treatment. The cells on the test plate were treated with a set of compounds of the general formula (I) as indicated below and incubated at 37° C. for 72 h. The compounds were added to the cells by means of an HP D300 digital dispenser in a 10-step 2.5-fold dilution series generally starting at a maximum final drug concentration of 100 nM. As control, the cells were treated with vehicle (DMSO at 0.3% final concentration). After 72 h, the cells were treated with 30 μl/cavity of CTG solution (Promega Cell Titer Glo (catalogue #G755B and G756B)) and incubated at room temperature for 10 min, and luminescence was measured by means of a VICTOR V (Perkin Elmer), in order to determine cell viability at the end of treatment. The percentage effect on cell growth and the IC50 derived therefrom were determined for each test substance using the values from the 0 h plate (=maximum inhibition) and the DMSO control (=minimum inhibition). The IC50 values were calculated using a 4-parameter fit.

[2] = system: sarcoma patient derived xenograft model SA3831 (Osteosarcoma); assay: In vivo xenotransplantation model SA3831; set-up: species or system mice
Description: (§1) The anti-tumor activities of (6S)-5-[4′-fluoro-2-(trifluoromethyl)biphenyl-4-yl]-6-methyl-3,6-dihydro-2H-1,3,4-oxadiazin-2-one was examined in murine xenotransplantation models of human cancer. For this purpose, mice were implanted subcutaneously with tumor pieces. At a mean tumor size of 20-40 mm^2 animals were randomized into treatment and control groups (at least n=10 animals/group) and treatment started with vehicle only or respective compound (formulation: 90% PEG400/10% Ethanol; application route: per os (“p.o.”), orally). The oral application volume was 10 ml/kg. In the case of twice daily treatments, the time interval between two applications per day was 6-7 h. The tumor size and the body weight were determined at least weekly. The tumor area was detected by means of an electronic caliper [length (mm)×width (mm)]. The experiment was ended when the study reached the pre-determined ethical endpoint based on German and European animal welfare regulations. In vivo anti-tumor efficacy is presented as T/C ratio at study end (Treatment/Control; mean tumor weight of treatment group/mean tumor weight of control group) in Table 2. A compound having a T/C below 0.5 is defined as active (i.e., effective). Statistical analysis was assessed using SigmaStat software. […]

[3] = system: sarcoma patient derived xenograft model SA4058 (Synovial Sarcoma); assay: In vivo xenotransplantation model SA4058; set-up: species or system mice
Description: as §1

[4] = system: sarcoma patient derived xenograft model SA16044 (Soft Tissue Sarcoma); assay: In vivo xenotransplantation model SA16044; set-up: species or system mice; conditions: for T/C: SA16044 Soft Tissue Sarcoma PDX subcutaneous in mice, 10 mg/kg 2QD p.o., at study end
Description: The anti-tumor activities of (6S)-5-[4′-fluoro-2-(trifluoromethyl)biphenyl-4-yl]-6-methyl-3,6-dihydro-2H-1,3,4-oxadiazin-2-one was examined in murine xenotransplantation models of human cancer. For this purpose, mice were implanted subcutaneously with tumor pieces. At a mean tumor size of 20-40 mm^2 animals were randomized into treatment and control groups (at least n=10 animals/group) and treatment started with vehicle only or respective compound (formulation: 90% PEG400/10% Ethanol; application route: per os (“p.o.”), orally). The oral application volume was 10 ml/kg. In the case of twice daily treatments, the time interval between two applications per day was 6-7 h. The tumor size and the body weight were determined at least weekly. The tumor area was detected by means of an electronic caliper [length (mm)×width (mm)]. The experiment was ended when the study reached the pre-determined ethical endpoint based on German and European animal welfare regulations. In vivo anti-tumor efficacy is presented as T/C ratio at study end (Treatment/Control; mean tumor weight of treatment group/mean tumor weight of control group) in Table 2. A compound having a T/C below 0.5 is defined as active (i.e., effective). Statistical analysis was assessed using SigmaStat software. A one-way analysis of variance was performed and differences to the control were compared by a pair-wise comparison procedure (Dunn's method).
Patient-derived xenograft models established by direct transplantation of fresh human tumors are considered to more closely resemble the heterogeneity of the actual human tumor compared to xenograft models established from cell lines that have been cultured in vitro for decades. The anti-tumor activity of (6S)-5-[4′-fluoro-2-(trifluoromethyl)biphenyl-4-yl]-6-methyl-3,6-dihydro-2H-1,3,4-oxadiazin-2-one was assessed in patient-derived xenograft models of sarcoma, a tumor type consisting of many subtypes and a high medical need due to absence of approved targeted therapies. The tumor models are originating from CrownBio.

[5] = system: sarcoma patient derived xenograft model SA10199 (recurrent malignant solitary fibrous tumor); assay: In vivo xenotransplantation model SA10199; set-up: species or system mice
Description: as §1

[6] = system: sarcoma patient derived xenograft model SA10245 (Fibrous histiocytoma); assay: In vivo xenotransplantation model SA10245; set-up: species or system mice
Description: as §1

Structure (SMILES)	IC50 [1]	other results
O=C1NN=C(c2ccc(N3CCC(F)(F)CC3)c(F)c2)CO1 [Example 1, 5-[4-(4,4-Difluoropiperidin-1-yl)-3-fluorophenyl]-3,6-dihydro-2H-1,3,4-oxadiazin-2-one]	26 nM	
O=C1NN=C(c2ccc(N3CCOCC3)c(F)c2)CO1 [Example 4, 5-[3-Fluoro-4-(morpholin-4-yl)phenyl]-3,6-dihydro-2H-1,3,4-oxadiazin-2-one]	103 nM	
Cc1cc(C2=NNC(=O)OC2)ccc1-c1ccc(F)cc1 [Example 7, 5-(4'-Fluoro-2-methylbiphenyl-4-yl)-3,6-dihydro-2H-1,3,4-oxadiazin-2-one]	49.6 nM	
Cc1cc(C2=NNC(=O)OC2)ccc1-c1ccc(F)c(F)c1 [Example 8, 5-(3',4'-Difluoro-2-methylbiphenyl-4-yl)-3,6-dihydro-2H-1,3,4-oxadiazin-2-one]	96.8 nM	
O=C1NN=C(c2ccc(-c3ccc(C(F)F)cc3)c(F)c2)CO1 [Example 92, 5-[4'-(Difluoromethyl)-2-fluoro[1,1'-biphenyl]-4-yl]-3,6-dihydro-2H-1,3,4-oxadiazin-2-one]	35.1 nM	
C[C@@H]1OC(=O)NN=C1c1ccc(-c2ccc(F)cc2)c(C(F)(F)F)c1 [Example 135, (6S)-5-[4'-Fluoro-2-(trifluoromethyl)biphenyl-4-yl]-6-methyl-3,6-dihydro-2H-1,3,4-oxadiazin-2-one]	17.6 nM	T/C ([2]; SA3831 Osteosarcoma PDX subcutaneous in mice, 10 mg/kg 2QD p.o., at study end): 0.01; anti-tumor efficacy (in words) ([2]; SA3831 PDX in mice, versus vehicle, unpaired t-test): strong tumor-growth inhibition; also recorded: significant anti-tumor efficacy; anti-tumor efficacy (in words) ([3]; SA4058 PDX in mice, versus vehicle, unpaired t-test): significant anti-tumor efficacy; also recorded: strong tumor-growth inhibition; T/C ([3]; SA4058 Synovial Sarcoma PDX subcutaneous in mice, 10 mg/kg 2QD p.o., at study end): 0.12; anti-tumor efficacy (in words) ([4]; SA16044 PDX in mice, versus vehicle, unpaired t-test): significant anti-tumor efficacy; also recorded: moderate tumor-growth inhibition; T/C ([4]; listed as (6S)-5-[4'-fluoro-2-(trifluoromethyl)biphenyl-4-yl]-6-methyl-3,6-dihydro-2H-1,3, 10 mg/kg): 0.33; T/C ([4]; listed as (6S)-5-[4′-fluoro-2-(trifluoromethyl)biphenyl-4-yl]-6-methyl-3,6-dihydro-2H-1,3, 10 mg/kg): 0.35 and 0.33; anti-tumor efficacy (in words) ([5]; SA10199 PDX in mice, versus vehicle, unpaired t-test): significant anti-tumor efficacy; also recorded: moderate tumor-growth inhibition; T/C ([5]; SA10199 Sarcoma (recurrent malignant solitary fibrous tumor) PDX subcutaneous in mice, 10 mg/kg 2QD p.o., at study end, listed as (6S)-5-[4'-fluoro-2-(trifluoromethyl)biphenyl-4-yl]-6-methyl-3,6-dihydro-2H-1,3, 10 mg/kg): 0.34; T/C ([6]; SA10245 Fibrous histiocytoma PDX subcutaneous in mice, 10 mg/kg 2QD p.o., at study end): 0.73; anti-tumor efficacy (in words) ([6]; SA10245 PDX in mice, versus vehicle, unpaired t-test): non-significant signs of anti-tumor efficacy; also recorded: least sensitive model
C[C@@H]1OC(=O)NN=C1c1ccc(-n2ccc(C(F)(F)F)n2)c(C(F)(F)F)c1 [Example 265, (6S)-6-Methyl-5-{3-(trifluoromethyl)-4-[3-(trifluoromethyl)-1H-pyrazol-1-yl]phenyl}-3,6-dihydro-2H-1,3,4-oxadiazin-2-one]	37.2 nM	
C[C@@H]1OC(=O)NN=C1c1ccc(N2CCN(C)CC2)c(C(F)(F)F)c1 [Example 277, (6S)-6-Methyl-5-[4-(4-methylpiperazin-1-yl)-3-(trifluoromethyl)phenyl]-3,6-dihydro-2H-1,3,4-oxadiazin-2-one]	604 nM	

The next lines start with results.

IC50 [1]	Structure (SMILES)	other results
38.2 nM	O=C1NN=C(c2ccc(-c3ccc(F)cc3)c(C(F)(F)F)c2)CO1 [Example 3, 5-[4'-Fluoro-2-(trifluoromethyl)biphenyl-4-yl]-3,6-dihydro-2H-1,3,4-oxadiazin-2-one]	
193 nM	Cc1ccc(C2=NNC(=O)OC2)cc1C(F)(F)F [Example 139, 5-[4-Methyl-3-(trifluoromethyl)phenyl]-3,6-dihydro-2H-1,3,4-oxadiazin-2-one]	
12.5 nM	O=C1NN=C(c2ccc(-c3cnn(C(F)F)c3)c(C(F)(F)F)c2)CO1 [Example 146, 5-{4-[1-(Difluoromethyl)-1H-pyrazol-4-yl]-3-(trifluoromethyl)phenyl}-3,6-dihydro-2H-1,3,4-oxadiazin-2-one]	
16.8 nM	COCCCc1ccc(C2=NNC(=O)OC2)cc1C(F)(F)F [Example 267, 5-[4-(3-Methoxypropyl)-3-(trifluoromethyl)phenyl]-3,6-dihydro-2H-1,3,4-oxadiazin-2-one]	
85.7 nM	CC(C)(C)CCc1ccc(C2=NNC(=O)OC2)cc1C(F)(F)F [Example 269, 5-[4-(3,3-Dimethylbutyl)-3-(trifluoromethyl)phenyl]-3,6-dihydro-2H-1,3,4-oxadiazin-2-one]	
